# Earlier results in US20210000953A1, “USE OF IMMUNE CHECKPOINT INHIBITORS IN CENTRAL NERVOUS SYSTEMS NEOPLASMS” (Bristol-Myers Squibb Company, priority 2014, published 2021).
# Legend:
# recurrent GBM = settings: single agent, relapsed setting; cited from earlier work
# [1] = in vivo; cited from earlier work
# newly diagnosed GBM = settings: cited from earlier work
# [2] = tested on: previously treated gliomas; settings: NCI 06-C-0064E, cited from earlier work
# previously treated GBM = settings: AVF3708g, cited from earlier work
molecule,measurement,setting,value
CCc1c2c(nc3ccc(OC(=O)N4CCC(N5CCCCC5)CC4)cc13)-c1cc3c(c(=O)n1C2)COC(=O)[C@]3(O)CC [irinotecan],Response rates,recurrent GBM,≤ 15%
Cn1nnc2c(C(N)=O)ncn2c1=O [temozolomide],Terminal half-life,[1],1.2 h
bevacizumab,Cognitive function and quality of life,newly diagnosed GBM; in vivo,reduced cognitive function and quality of life
same,Overall survival,"newly diagnosed GBM; newly diagnosed GBM, above standard of care (radiotherapy plus temozolomide)",does not significantly increase overall survival
same,Progression-free survival,"newly diagnosed GBM; newly diagnosed GBM, with radiotherapy plus temozolomide",increases progression-free survival
same,Objective responses,"[2]; 56 patients with high-grade glioma, 95% CI, 10.9%, 31.3%",19.6%
same,Median duration of response,"[2]; 95% CI: 2.4, 17.4",3.9 months
same,"Responses, % of patients","previously treated GBM; WHO radiographic criteria, 95% CI:17.0%, 36.1%",25.9%
same,Median duration of response,"previously treated GBM; 95% CI: 3.0, 5.7 months",4.2 months
